Experimental data taken from patent US20230085307A1, “PYRIDAZINONE COMPOUND AND HERBICIDE” (NISSAN CHEMICAL CORPORATION, priority 2019, published 2023).

Key:
[1] = system: green foxtail; test: Test Example 4: herbicidal effect by soil treatment (Table 19, symbol G); type: in vivo, green foxtail (Setaria viridis); conditions: amount of applied herbicide 320 g/ha
Outline: (§1)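 Pre-emergence style soil spray: seeds under ~1.5 cm sterilized diluvial soil received a uniform coat of emulsion diluted to the predetermined herbicide amount. Greenhouse 25–30° C; readout at week three on previously defined criteria.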

[2] = system: lambsquarters; test: Test Example 5: herbicidal effect by foliage application, plastic box (Table 20, symbol O); type: in vivo, lambsquarters (Chenopodium album); conditions: foliage application, 320 g/ha, three weeks after application
Outline: (§2)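 Plants were sown into sterilized diluvial soil under about 1.5 cm cover and kept in a greenhouse at 25° C. to 30° C. Fourteen days on, foliage received an even spray of the diluted emulsion. Herbicidal or crop effect was judged three weeks afterwards.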

[3] = system: chickweed; test: Test Example 4: herbicidal effect by soil treatment (Table 19, symbol P); type: in vivo, common chickweed (Stellaria media); conditions: amount of applied herbicide 320 g/ha
Outline: as §1

[4] = system: Italian ryegrass; test: Test Example 5: herbicidal effect by foliage application, plastic box (Table 20, symbol K); type: in vivo, Italian ryegrass (Lolium multiflorum); conditions: foliage application, 320 g/ha, three weeks after application
Outline: as §2

[5] = system: windgrass; test: Test Example 4: herbicidal effect by soil treatment (Table 19, symbol L); type: in vivo, windgrass (Apera spica-venti); conditions: amount of applied herbicide 320 g/ha
Outline: as §1

[6] = system: late watergrass; test: Test Example 1: herbicidal activity, application before weed generation under submerged conditions (Table 16, symbol A); type: in vivo, late watergrass (Echinochloa oryzicola); conditions: amount of applied herbicide 320 g/ha
Outline: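 Submerged Wagner pots (alluvial soil, 4 cm water) sown with weed seeds and planted with 2.5-leaf rice seedlings; emulsifiable concentrate diluted in water applied to water surface on sowing day. Held in greenhouse at 25-30 °C; injury scored 0-5 by herbicidal rate after three weeks.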

[7] = system: rice flat sedge; test: Test Example 3: herbicidal effect by foliage application, Wagner pot (Table 18, symbol E); type: in vivo, rice flat sedge (Cyperus iria); conditions: amount of applied herbicide 320 g/ha
Outline: (§3)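 Plants were sown in alluvial soil held under 0.1–0.5 cm standing water and grown 14 days in a greenhouse at 25–30 °C. An emulsifiable formulation, water-diluted to the set dose, was then sprayed onto the foliage, and effects were scored three weeks later using previously defined criteria.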

[8] = system: windgrass; test: Test Example 5: herbicidal effect by foliage application, plastic box (Table 20, symbol L); type: in vivo, windgrass (Apera spica-venti); conditions: foliage application, 320 g/ha, three weeks after application
Outline: as §2

[9] = system: green foxtail; test: Test Example 5: herbicidal effect by foliage application, plastic box (Table 20, symbol G); type: in vivo, green foxtail (Setaria viridis); conditions: foliage application, 320 g/ha, three weeks after application
Outline: as §2

[10] = system: persian speedwell; test: Test Example 5: herbicidal effect by foliage application, plastic box (Table 20, symbol R); type: in vivo, Persian speedwell (Veronica persica); conditions: foliage application, 320 g/ha, three weeks after application
Outline: as §2

[11] = system: Italian ryegrass; test: Test Example 4: herbicidal effect by soil treatment (Table 19, symbol K); type: in vivo, Italian ryegrass (Lolium multiflorum); conditions: amount of applied herbicide 320 g/ha
Outline: as §1

[12] = system: late watergrass; test: Test Example 2: herbicidal activity, application during weed generation under submerged conditions (Table 17, symbol A); type: in vivo, late watergrass (Echinochloa oryzicola); conditions: AAH 320 g/ha; application during weed generation, submerged conditions
Outline: (§4)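 In this pot test, flooded alluvial soil (water depth 4 cm) holds all three species sown as a mixture. Once seedlings have one to two leaves, the compound's emulsion, thinned with water to the intended dose, is poured on the water; grading follows after three weeks on the earlier criteria.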

[13] = system: Japanese bulrush; test: Test Example 2: herbicidal activity, application during weed generation under submerged conditions (Table 17, symbol B); type: in vivo, Japanese bulrush (Schoenoplectus juncoides); conditions: AAH 320 g/ha; application during weed generation, submerged conditions
Outline: as §4

[14] = system: barnyard grass; test: Test Example 3: herbicidal effect by foliage application, Wagner pot (Table 18, symbol H); type: in vivo, barnyard grass (Echinochloa crus-galli); conditions: amount of applied herbicide 320 g/ha
Outline: as §3

[15] = system: oval-leafed pondweed; test: Test Example 2: herbicidal activity, application during weed generation under submerged conditions (Table 17, symbol C); type: in vivo, oval-leafed pondweed (Monochoria vaginalis); conditions: AAH 320 g/ha; application during weed generation, submerged conditions
Outline: as §4

[16] = system: persian speedwell; test: Test Example 4: herbicidal effect by soil treatment (Table 19, symbol R); type: in vivo, Persian speedwell (Veronica persica); conditions: amount of applied herbicide 320 g/ha
Outline: as §1

[17] = system: southern crabgrass; test: Test Example 5: herbicidal effect by foliage application, plastic box (Table 20, symbol F); type: in vivo, southern crabgrass (Digitaria ciliaris); conditions: foliage application, 320 g/ha, three weeks after application
Outline: as §2

## COc1ccc(-c2oc3ccc(C)cc3c2-c2c(O)c(C)nn(C)c2=O)cc1 [9-007]
[1]
  G: green foxtail, herbicidal effect grade: 3 (Herbicidal rate of 40% or more and less than 70%)
[2]
  herbicidal effect on lambsquarters (O): 5 (Herbicidal rate of 90% or more (almost completely withered))
[3]
  P: chickweed, herbicidal effect grade: 4 (Herbicidal rate of 70% or more and less than 90%)
[4]
  herbicidal effect on Italian ryegrass (K): 5 (Herbicidal rate of 90% or more (almost completely withered))
[5]
  L: windgrass, herbicidal effect grade: 0 (Herbicidal rate of 5% or less (almost no effect))
[6]
  Herbicidal effect, A: late watergrass: 5 (Herbicidal rate of 90% or more (almost completely withered))
[7]
  Herbicidal effect on E (rice flat sedge), foliage application: 5 (Herbicidal rate of 90% or more (almost completely withered))
[8]
  herbicidal effect on windgrass (L): 4 (Herbicidal rate of 70% or more and less than 90%)
[9]
  herbicidal effect on green foxtail (G): 4 (Herbicidal rate of 70% or more and less than 90%)
[10]
  herbicidal effect on persian speedwell (R): 5 (Herbicidal rate of 90% or more (almost completely withered))
[11]
  K: Italian ryegrass, herbicidal effect grade: 5 (Herbicidal rate of 90% or more (almost completely withered))
[12]
  herbicidal effect rating, A: late watergrass: 4 (Herbicidal rate of 70% or more and less than 90%)
[13]
  herbicidal effect rating, B: Japanese bulrush: 5 (Herbicidal rate of 90% or more (almost completely withered))
[14]
  Herbicidal effect on H (barnyard grass), foliage application: 4 (Herbicidal rate of 70% or more and less than 90%)
[15]
  herbicidal effect rating, C: oval-leafed pondweed: 5 (Herbicidal rate of 90% or more (almost completely withered))
[16]
  R: persian speedwell, herbicidal effect grade: 5 (Herbicidal rate of 90% or more (almost completely withered))
[17]
  herbicidal effect on southern crabgrass (F): 5 (Herbicidal rate of 90% or more (almost completely withered))

## CCCC(=O)Oc1c(C)nn(C)c(=O)c1-c1c(-c2ccc(OC)cc2)oc2ccc(C)cc12 [9-008]
[1]
  G: green foxtail, herbicidal effect grade: 2 (Herbicidal rate of 20% or more and less than 40%)
[2]
  herbicidal effect on lambsquarters (O): 4 (Herbicidal rate of 70% or more and less than 90%)
[3]
  P: chickweed, herbicidal effect grade: 0 (Herbicidal rate of 5% or less (almost no effect))
[4]
  herbicidal effect on Italian ryegrass (K): 5 (Herbicidal rate of 90% or more (almost completely withered))
[5]
  L: windgrass, herbicidal effect grade: 0 (Herbicidal rate of 5% or less (almost no effect))
[6]
  Herbicidal effect, A: late watergrass: 5 (Herbicidal rate of 90% or more (almost completely withered))
[7]
  Herbicidal effect on E (rice flat sedge), foliage application: 5 (Herbicidal rate of 90% or more (almost completely withered))
[8]
  herbicidal effect on windgrass (L): 0 (Herbicidal rate of 5% or less (almost no effect))
[9]
  herbicidal effect on green foxtail (G): 3 (Herbicidal rate of 40% or more and less than 70%)
[10]
  herbicidal effect on persian speedwell (R): 5 (Herbicidal rate of 90% or more (almost completely withered))
[11]
  K: Italian ryegrass, herbicidal effect grade: 4 (Herbicidal rate of 70% or more and less than 90%)
[12]
  herbicidal effect rating, A: late watergrass: 1 (Herbicidal rate of 5% or more and less than 20%)
[13]
  herbicidal effect rating, B: Japanese bulrush: 5 (Herbicidal rate of 90% or more (almost completely withered))
[14]
  Herbicidal effect on H (barnyard grass), foliage application: 2 (Herbicidal rate of 20% or more and less than 40%)
[15]
  herbicidal effect rating, C: oval-leafed pondweed: 5 (Herbicidal rate of 90% or more (almost completely withered))
[16]
  R: persian speedwell, herbicidal effect grade: 4 (Herbicidal rate of 70% or more and less than 90%)
[17]
  herbicidal effect on southern crabgrass (F): 3 (Herbicidal rate of 40% or more and less than 70%)

## CCOc1ccc(-c2oc3ccc(F)cc3c2-c2c(O)c(C)nn(C)c2=O)cc1 [9-021]
[1]
  G: green foxtail, herbicidal effect grade: 4 (Herbicidal rate of 70% or more and less than 90%)
[2]
  herbicidal effect on lambsquarters (O): 3 (Herbicidal rate of 40% or more and less than 70%)
[3]
  P: chickweed, herbicidal effect grade: 0 (Herbicidal rate of 5% or less (almost no effect))
[4]
  herbicidal effect on Italian ryegrass (K): 5 (Herbicidal rate of 90% or more (almost completely withered))
[5]
  L: windgrass, herbicidal effect grade: 3 (Herbicidal rate of 40% or more and less than 70%)
[6]
  Herbicidal effect, A: late watergrass: 5 (Herbicidal rate of 90% or more (almost completely withered))
[7]
  Herbicidal effect on E (rice flat sedge), foliage application: 5 (Herbicidal rate of 90% or more (almost completely withered))
[8]
  herbicidal effect on windgrass (L): 0 (Herbicidal rate of 5% or less (almost no effect))
[9]
  herbicidal effect on green foxtail (G): 4 (Herbicidal rate of 70% or more and less than 90%)
[10]
  herbicidal effect on persian speedwell (R): 5 (Herbicidal rate of 90% or more (almost completely withered))
[11]
  K: Italian ryegrass, herbicidal effect grade: 5 (Herbicidal rate of 90% or more (almost completely withered))
[12]
  herbicidal effect rating, A: late watergrass: 4 (Herbicidal rate of 70% or more and less than 90%)
[13]
  herbicidal effect rating, B: Japanese bulrush: 3 (Herbicidal rate of 40% or more and less than 70%)
[14]
  Herbicidal effect on H (barnyard grass), foliage application: 3 (Herbicidal rate of 40% or more and less than 70%)
[15]
  herbicidal effect rating, C: oval-leafed pondweed: 4 (Herbicidal rate of 70% or more and less than 90%)
[16]
  R: persian speedwell, herbicidal effect grade: 5 (Herbicidal rate of 90% or more (almost completely withered))
[17]
  herbicidal effect on southern crabgrass (F): 4 (Herbicidal rate of 70% or more and less than 90%)
